Values quoted from earlier work in patent publication US10393636B2 (priority 2017, dated 2019).

Log P: 5.06
SMILES: CN[C@H]1CC[C@@H](c2ccc(Cl)c(Cl)c2)c2ccccc21 [Sertraline]
